Values joined by “and” are separate entries in the source; they are usually repeats but may differ in a detail not shown here. Equal values may be shown once. “Also recorded” adds a separate entry of the source. Read-outs that look alike come from different tables or passages of the source.
What was measured:
[1] = tested on: α1M236Wβ2γ2 GABAA receptor; conditions: α1M236W, cited from earlier work
[2] = tested on: α1β2M286Wγ2 GABAA receptor; conditions: β2M286W, cited from earlier work
[3] = tested on: α1β2M286Aγ2 GABAA receptor; conditions: β2M286A; cited from earlier work
[4] = tested on: α1β2γ2 GABAA receptor; conditions: cited from earlier work
[5] = tested on: α1β2N265Mγ2 GABAA receptor; conditions: β2N265M, cited from earlier work
[6] = tested on: α1M236Aβ2γ2 GABAA receptor; conditions: α1M236A; cited from earlier work
[7] = tested on: β2N265M mutant α1β2γ2 GABAA receptor; experiment: Whole-cell patch-clamp electrophysiology, TMD site mutant incl. diazepam competition; assay type: cell-based; conditions: for Effect on potentiation by diazepam (competition assay): diazepam 1 µM, methaqualone 100 µM
Description: (§1) Whole-cell voltage-clamp recordings were collected on the adherent HEK293S GnTI^− that were transiently transfected with the tri-cistronic pEZT construct used for structural analyses, as well as with GFP protein in pEZT for selection. The amount of plasmids used for transfection was 0.2–0.6 μg, and transfection was performed according to Lipofectamine2000 manufacturer’s protocol. The protein was expressed for 1–3 days at 30 °C. On the day of recording, cells were plated onto a 35 mm dish and washed with bath solution (140 mM NaCl, 2.4 mM KCl, 4 mM MgCl2, 4 mM CaCl2, 10 mM HEPES pH 7.3, and 10 mM glucose). Borosilicate pipettes were pulled and polished to an initial resistance of 2–4 MΩ. Pipettes were filled with the pipette solution (100 mM CsCl, 30 mM CsF, 10 mM NaCl, 10 mM EGTA, and 20 mM HEPES pH 7.3). Cells were clamped at −75 mV. The recordings were made using an Axopatch 200B amplifier, sampled at 5 kHz, and low pass filtered at 2 kHz using Digidata 1440 A (Molecular Devices), and analyzed with pClamp 10 software (Molecular Devices). Ligand solutions were prepared in a bath solution. A gravity-driven RSC-200 rapid solution changer (Bio-Logic) was used for solution exchange.
Statistical analysis in Fig. 3 and Fig. 4 was performed using GraphPad Prism 9.2.0 software (GraphPad Software, Inc., La Jolla, CA). Data are expressed as means ± standard deviation of at least three recordings from independent cells. The two-tailed Welch’s t-test was used. A p-value of ≤0.05 was considered statistically significant.

[8] = tested on: β2/3N265M GABAA receptor; conditions: cited from earlier work
[9] = tested on: βM286W GABAA receptor; conditions: cited from earlier work
[10] = tested on: β1-containing GABAA receptors; conditions: cited from earlier work
[11] = tested on: α6β2N265Sδ GABAA receptor; conditions: β2N265S in α6β2δ, cited from earlier work
[12] = molecular target: T1, α1Y210A/γ2F77A mutant α1β2γ2 GABAA receptor (Homo sapiens, UniProt P14867+P18507+P47870, DEL344-414/DEL362-381/DEL386-444/F116A/F383Q/G341Q/I446A/K384P/R340S/S415R/S417A/V416A/Y237A/Y342P); experiment: Whole-cell patch-clamp electrophysiology, benzodiazepine-site double mutant; assay type: cell-based; conditions: 500 µM and 1000 µM methaqualone with GABA EC10, vs cryo-EM construct
T1 construct: twin-strep tag (N); expressed in transfected cells; host or cells: HEK293S GnTI- (text: HEK cells)
T1 sequence (P14867 with tags, fused parts or gaps Y237A/R340S/G341Q/Y342P/DEL344-414/S415R/V416A/S417A): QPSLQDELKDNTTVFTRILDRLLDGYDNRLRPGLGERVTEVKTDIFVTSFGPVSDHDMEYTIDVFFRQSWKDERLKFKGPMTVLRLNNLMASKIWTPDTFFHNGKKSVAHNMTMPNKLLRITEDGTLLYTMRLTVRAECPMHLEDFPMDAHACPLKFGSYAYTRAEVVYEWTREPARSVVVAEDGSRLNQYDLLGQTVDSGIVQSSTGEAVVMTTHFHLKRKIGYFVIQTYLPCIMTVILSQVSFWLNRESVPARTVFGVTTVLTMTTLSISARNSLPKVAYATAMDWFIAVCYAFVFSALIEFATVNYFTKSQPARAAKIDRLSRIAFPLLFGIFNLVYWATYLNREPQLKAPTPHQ
T1 sequence (P47870 with tags, fused parts or gaps): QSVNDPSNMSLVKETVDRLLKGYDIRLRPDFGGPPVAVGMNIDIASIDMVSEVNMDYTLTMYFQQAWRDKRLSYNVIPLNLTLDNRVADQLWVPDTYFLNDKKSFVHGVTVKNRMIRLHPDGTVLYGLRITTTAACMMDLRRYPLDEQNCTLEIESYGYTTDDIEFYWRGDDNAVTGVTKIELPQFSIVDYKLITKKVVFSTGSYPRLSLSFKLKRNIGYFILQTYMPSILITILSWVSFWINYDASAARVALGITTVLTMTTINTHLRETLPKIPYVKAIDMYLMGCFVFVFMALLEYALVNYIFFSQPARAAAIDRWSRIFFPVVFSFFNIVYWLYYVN
T1 sequence (P18507 with tags, fused parts or gaps F116A/DEL362-381/F383Q/K384P/DEL386-444/I446A): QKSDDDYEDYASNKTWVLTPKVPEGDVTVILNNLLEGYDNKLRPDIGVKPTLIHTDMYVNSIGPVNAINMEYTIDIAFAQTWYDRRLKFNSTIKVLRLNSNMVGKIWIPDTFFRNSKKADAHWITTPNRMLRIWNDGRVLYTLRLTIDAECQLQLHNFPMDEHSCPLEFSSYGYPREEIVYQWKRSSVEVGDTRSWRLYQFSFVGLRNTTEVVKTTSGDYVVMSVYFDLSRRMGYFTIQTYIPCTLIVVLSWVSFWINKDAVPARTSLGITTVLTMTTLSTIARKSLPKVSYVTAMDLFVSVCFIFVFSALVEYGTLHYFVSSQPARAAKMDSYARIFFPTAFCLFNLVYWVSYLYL
Description: as §1, with “A gravity-driven RSC-200 rapid solution changer (Bio-Logic) was used for solution exchange.” left out
Statistical analysis in Fig. 3 and Fig. 4 was performed using GraphPad Prism 9.2.0 software (GraphPad Software, Inc., La Jolla, CA). Data are expressed as means ± standard deviation of at least three recordings from independent cells. […]

[13] = tested on: α6β1S265Nδ GABAA receptor; conditions: β1S265N in α6β1δ, cited from earlier work
[14] = tested on: α1H102R α1β2γ2 GABAA receptor; conditions: 300 µM methaqualone; cited from earlier work
[15] = tested on: α1β2γ2 GABAA receptor; set-up: method as in Zhu S et al., 2018; conditions: ref Zhu S et al., 2018, cited from earlier work

Compound: NCCCC(=O)O [GABA, γ-aminobutyric acid]
- Effect of mutation on receptor sensitivity to GABA [1]: increases receptor sensitivity to GABA

Compound: Cc1ccc(-n2c(-c3ccccc3)nc3ccccc3c2=O)cc1 [PPTQ, 2-phenyl-3-(p-tolyl)-quinazolin-4(3H)-one]
- Effect of mutation on PAM activity [2]: significantly decreases its PAM efficacy; also recorded: pronounced decrease in PAM activity
- Effect of mutation on direct activation (agonist activity) [2]: completely abolishes PPTQ agonist activity; also recorded: Elimination of direct activation
- Effect of mutation on PAM activity [1]: PAM efficacy plummets; also recorded: decreased PAM activity
- Effect of mutation on direct activation (agonist activity) [1]: dramatically more efficacious agonists; also recorded: Pronounced increase in direct activation
- Effect of mutation on PAM activity [3]: significantly decreases its PAM efficacy; also recorded: decreased PAM activity
- Effect of mutation on direct activation (agonist activity) [3]: completely abolishes PPTQ agonist activity; also recorded: Elimination of direct activation
- Higher modulatory potency (EC50 value) than methaqualone ([4]; α1β2γ2 receptor subtype): ~50 fold
- Effect of mutation on PAM activity [5]: reduces the PAM activity of methaqualone and PAM and agonist activities of PPTQ significantly; also recorded: Elimination
- Effect of mutation on direct activation (agonist activity) [5]: reduces the PAM activity of methaqualone and PAM and agonist activities of PPTQ significantly; also recorded: Elimination
- Effect of mutation on PAM activity [6]: negligible effects; also recorded: No significant difference
- Effect of mutation on direct activation (agonist activity) [6]: negligible effects; also recorded: No significant difference

Compound: CN1C(=O)CN=C(c2ccccc2)c2cc(Cl)ccc21 [diazepam]
- Relative current, GABA EC10 + DZ 1uM ([7]; N265M, relative to GABA EC10, single recordings, listed as DZ): 1.349 and 1.602 and 1.299 and 1.556

Compound: CCOC(=O)c1cncn1[C@H](C)c1ccccc1 [etomidate]
- Effect of mutation on PAM activity [1]: PAM efficacy plummets
- Effect of mutation on direct activation (agonist activity) [1]: dramatically more efficacious agonists
- Effect of mutation on potentiation [8]: almost entirely eliminates potentiation by etomidate
- Effect of mutation on PAM and agonist activities [9]: detrimental to the PAM and agonist activities
- Activity at receptors with serine at the β265 position [10]: remain active
- Effect of mutation on PAM activity [6]: increases etomidate modulatory efficacy

Compound: Cc1ccccc1-n1c(C)nc2ccccc2c1=O [methaqualone, Methaqualone]
- Effect of mutation on PAM activity [2]: more subtle decrease
- Effect of mutation on PAM activity ([2]; listed as Methaqualone): Decreased PAM activity
- Effect of mutation on PAM activity [11]: from a PAM into a NAM
- Effect of mutation on PAM activity ([11]; listed as Methaqualone): Elimination of PAM activity
- Effect of mutation on PAM activity [1]: PAM efficacy plummets
- Effect of mutation on direct activation (agonist activity) [1]: dramatically more efficacious agonists
- Effect of mutation on direct activation (agonist activity) ([1]; listed as Methaqualone): Pronounced increase in direct activation
- Methaqualone-mediated modulation: effect of the two mutations [12]: affected neither
- Potentiation in the presence of saturating concentrations of flumazenil ([4]; 300 µM methaqualone): not significantly affected
- Shape of PAM concentration-response curve ([4]; decreasing degree of potentiation above 300 µM): bell-shaped concentration-response curve
- Agonist activity ([4]; very high concentrations (200–1000 µM)): minute but significant agonist activity
- Effect of mutation on PAM activity [13]: from a NAM to a PAM
- Effect of mutation on PAM activity ([13]; listed as Methaqualone): Rescued PAM activity
- Effect of α1H102R mutation on potentiation [14]: not significantly affected
- Effect of mutation on PAM activity [5]: reduces the PAM activity of methaqualone and PAM and agonist activities of PPTQ significantly
- Effect of mutation on PAM activity ([5]; listed as Methaqualone): Almost eliminated PAM activity
- Effect of β2N265M mutation on methaqualone potentiation ([7]; 100 µM methaqualone with GABA EC10): most of the methaqualone activity was lost
- Effect on receptor activation by GABA ([7]; 100 µM methaqualone, β2N265M): no measurable effect
- Effect on potentiation by diazepam (competition assay) ([7]; β2N265M): block much of the PAM activity of diazepam
- Effect on potentiation by diazepam (competition assay) ([7]; β2N265M, listed as MQ): inhibit diazepam potentiation

Compound: CC(C)c1cccc(C(C)C)c1O [propofol]
- Effect of mutation on potentiation [8]: significantly reduces potentiation of propofol
- Effect of mutation on PAM and agonist activities [9]: detrimental to the PAM and agonist activities
- Activity at receptors with serine at the β265 position [10]: remain active

Compound: Fab: Fab fragment of 1F4 monoclonal antibody against the α1 subunit, used for cryo-EM particle alignment
- Effect on flumazenil's activity or binding affinity [15]: no significant effect
- Shift of the EC50 for GABA to the left ([15]; weak positive allosteric modulator): 2.5 fold

— publication PMC11187190, “Structural insights into GABAA receptor potentiation by Quaalude” (Nature Communications, 2024)
